Results from patent US20100022401A1, “Avidin-like proteins from symbiotic bacteria” (LICENTIA OY, priority 2004, published 2010).
Like-named read-outs stand apart in the source and are kept apart here. Marks after values point to notes of the source that are not given here.

Key:
[1] = radio-biotin; streptavidin values from Klumb et al., 1998; cited from earlier work
[2] = Fluorescent biotin conjugate dissociation assay; type: binding
Procedure: FIG. 2 Biotin dissociation analysis. (A) The [3H]biotin dissociation rate constant was measured at different temperatures. The values for streptavidin are from Klumb et al. (Klumb et al., 1998). The scale of the Y axis is logarithmic. (B) Release of fluorescent biotin conjugate from avidins was studied as a function of time in the presence of excess D-biotin at 50° C.
Ligand binding properties were studied both by [3H]biotin assay and fluorescent biotin conjugate assay. The dissociation rate constant of [3H]biotin (Amersham) from the bradavidins and avidin was measured at various temperatures as described in detail previously (Klumb et al., 1998). According to the results, (Table I, FIG. 2) the faster dissociation rate measured from bradavidin indicates weaker affinity toward the radiobiotin than those of avidin and streptavidin. The dissociation rate of a fluorescent biotin conjugate (ArcDia BF560™-biotin) was measured as previously described (Hytönen et al., 2004a) at 50° C.
The apparent molecular mass is indicated and followed by the theoretical mass in brackets. Transition temperature (Tr) indicates the temperature in which half of the protein is tetrameric and half monomeric in the absence (first value) and presence (second value) of biotin. In addition to the measured dissociation rate constant (kdiss), the release percentage of the fluorescent biotin conjugate in one hour in the presence of excess free biotin is indicated. Calculated isoelectrical point (pI) and the number of cysteine residues per monomer are also indicated.

[3] = values from Bayer et al., 1996, cited from earlier work

Streptavidin: bacterial analog for avidin from S. avidinii (SEQ ID NO:7) [reference compound]
[3H]biotin dissociation rate (in words) [1]: fell between these two
Fluorescent biotin kdiss ([2]; ArcDia BF560-biotin, 50° C.): 7.2e-06 s⁻¹
Fluorescent biotin conjugate dissociation (in words) ([2]; fluorescent biotin conjugate as ligand): very slow and small release
Release 1 h of fluorescent biotin conjugate ([2]; one hour, presence of excess free biotin, 50° C.): 5.1%
Heat treatment SDS-PAGE Tr (transition temperature) ([3]; absence of biotin): 72^a ° C.
Heat treatment SDS-PAGE Tr (transition temperature) ([3]; presence of biotin): 100^a ° C.
